Source: patent publication US10294202B2, “Pyrrolidinones as herbicides” (FMC Corporation, priority 2013, dated 2019)

Experiments:
[1] = test system: giant foxtail; assay: Test A pre-/postemergence herbicide test; assay type: in vivo, Setaria faberii
Method in brief: (§1)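 Scoring was visual, relative to untreated controls, on a 0–100 scale after about 10 greenhouse days. Preemergence treatment used a directed soil spray over seeded loam/sand; postemergence treatment targeted one- to two-leaf plants of 2–10 cm.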

[2] = test system: velvetleaf; assay: Test C pre-/postemergence herbicide test; assay type: in vivo, Abutilon theophrasti; settings: Preemergence; for Plant response rating (scale of 0 to 100), Velvetleaf: 250 g ai/ha
From the text: (§2) Seeds of plant species selected from blackgrass (Alopecurus myosuroides), ryegrass, Italian (Italian ryegrass, Lolium multiflorum), wheat (winter wheat, Triticum aestivum), galium (catchweed bedstraw, Galium aparine), corn (Zea mays), crabgrass, large (large crabgrass, Digitaria sanguinalis), foxtail, giant (giant foxtail, Setaria faberii), johnsongrass (Sorghum halepense), lambsquarters (Chenopodium album), morningglory (Ipomoea coccinea), nutsedge, yellow (yellow nutsedge, Cyperus esculentus), pigweed (Amaranthus retroflexus), ragweed (common ragweed, Ambrosia elatior), soybean (Glycine max), barnyardgrass (Echinochloa crus-galli), oilseed rape (Brassica napus), waterhemp (common waterhemp, Amaranthus rudis), kochia (Kochia scoparia), oat, wild (wild oat, Avena fatua), surinam grass (Brachiaria decumbens), foxtail, green (green foxtail, Setaria viridis), goosegrass (Eleusine indica), bromegrass, downy (downy bromegrass, Bromus tectorum), nightshade (eastern black nightshade, Solanum ptycanthum), cocklebur (common cocklebur, Xanthium strumarium), cupgrass, woolly (woolly cupgrass, Eriochloa villosa), bermudagrass (Cynodon dactylon), sunflower, (common oilseed sunflower, Helianthus annuus), Russian thistle (Salsola kali) and velvetleaf (Abutilon theophrasti) were planted into a blend of loam soil and sand and treated preemergence with test chemicals formulated in a non-phytotoxic solvent mixture which included a surfactant. At the same time, plants selected from these crop and weed species and also barley (winter barley, Hordeum vulgare), […]), chickweed (common chickweed, Stellaria media), deadnettle (henbit deadnettle, Lamium amplexicaule), and canarygrass (littleseed canarygrass, Phalaris minor) were planted in pots containing Redi-Earth® planting medium (Scotts Company, 14111 Scottslawn Road, Marysville, Ohio 43041) comprising spaghnum peat moss, vermiculite, wetting agent and starter nutrients and treated with postemergence applications of test chemicals formulated in the same manner. Plants ranged in height from 2 to 18 cm (1- to 4-leaf stage) for postemergence treatments. Treated plants and controls were maintained in a greenhouse for 13 to 15 days, after which time all species were compared to controls and visually evaluated. Plant response ratings, summarized in Table C, are based on a scale of 0 to 100 where 0 is no effect and 100 is complete control. A dash (-) response means no test result.

[3] = test system: ryegrass, Italian; assay: Test C pre-/postemergence herbicide test; assay type: in vivo, Lolium multiflorum; settings: Preemergence; for Plant response rating (scale of 0 to 100), Ryegrass, Italian: 250 g ai/ha
From the text: as §2

[4] = test system: ragweed; assay: Test C pre-/postemergence herbicide test; assay type: in vivo, Ambrosia elatior; settings: Preemergence; for Plant response rating, Ragweed: 125 g ai/ha; for Plant response rating (scale of 0 to 100), Ragweed: 250 g ai/ha
From the text: as §2

[5] = test system: blackgrass; assay: Test A postemergence herbicide test; assay type: in vivo, Alopecurus myosuroides
Method in brief: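 Blackgrass and galium grown in pots of loam soil–sand blend, treated postemergence at 2–10 cm height, one- to two-leaf stage. Plants kept in greenhouse ~10 days, then visually rated for injury against untreated controls on a 0–100 scale (0 no effect, 100 complete control).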

[6] = test system: ragweed; assay: Test A pre-/postemergence herbicide test; assay type: in vivo, Ambrosia elatior
Method in brief: as §1

[7] = test system: kochia; assay: Test A pre-/postemergence herbicide test; assay type: in vivo, Kochia scoparia
Method in brief: as §1

[8] = Postemergence, 500 g ai/ha, 0 to 100 scale (0 no effect, 100 complete control)
[9] = 31 g ai/ha, scale 0 to 100, 0 is no effect and 100 is complete control
[10] = 125 g ai/ha, scale 0 to 100 (0 no effect, 100 complete control)
[11] = 62 g ai/ha, scale 0 to 100 (0 no effect, 100 complete control)
[12] = scale 0 to 100 (0 no effect, 100 complete control)
[13] = Postemergence, 125 g ai/ha, 0 to 100 scale, 0 is no effect, 100 is complete control
[14] = Preemergence, 125 g ai/ha, 0 to 100 scale where 0 is no effect and 100 is complete control
[15] = preemergence, 500 g ai/ha, 0 to 100 scale, 0 is no effect and 100 is complete control
[16] = 125 g ai/ha, visual rating, 0 to 100 scale, 0 no effect, 100 complete control, approximately 10 days, preemergence
[17] = Postemergence, 1000 g ai/ha, 0 to 100 scale (0 no effect, 100 complete control)
[18] = preemergence, 1000 g ai/ha, 0 to 100 scale
[19] = Postemergence, 125 g ai/ha, visual rating on 0 to 100 scale (0 no effect, 100 complete control), approx. 10 days
[20] = Preemergence, 500 g ai/ha, visual rating on 0 to 100 scale (0 no effect, 100 complete control)

Structure (SMILES) | Plant response rating, Foxtail, Giant [1, 8] | Velvetleaf plant response rating [2, 9] | Plant response rating, Velvetleaf [2, 10] | Plant response rating (scale of 0 to 100), Velvetleaf [2] | Ryegrass, Italian plant response rating [3, 9] | Plant response rating, Ryegrass, Italian [3, 10] | Plant response rating (scale of 0 to 100), Ryegrass, Italian [3] | Ragweed plant response rating [4, 9] | Ragweed plant response rating [4, 11] | Plant response rating, Ragweed [4, 12] | Plant response rating (scale of 0 to 100), Ragweed [4] | Plant response rating, Foxtail, Giant [1, 13] | Plant response rating, Foxtail, Giant [1, 14] | Plant response rating, Foxtail, Giant [1, 15] | Velvetleaf plant response rating [2, 11] | Ryegrass, Italian plant response rating [3, 11] | other results
O=C1NCC(c2ccc(F)c(C(F)(F)F)c2)C1C(=O)Nc1ccccc1C(F)(F)F (racemic) [Compound 78] | 80 | 15 | 20 | 20 | 0 | 40 | 45 |  |  |  |  |  |  |  |  |  | Plant response rating, Foxtail, Giant ([1]; Postemergence, 125 g ai/ha, 0 to 100 scale, 0 no effect, 100 complete control): 80; Foxtail, Giant plant response rating ([1]; Preemergence, 125 g ai/ha, visual rating on 0 to 100 scale (0 no effect, 100 complete control)): 90; Plant response rating, Foxtail, Giant ([1]; preemergence, 500 g ai/ha, 0 to 100 scale): 90; Plant response rating, Velvetleaf ([2]; 62 g ai/ha, scale 0 to 100): 15; Plant response rating, Ryegrass, Italian ([3]; 62 g ai/ha, scale 0 to 100): 40
O=C1NCC(c2ccc(C(F)(F)F)c(F)c2)C1C(=O)Nc1ccccc1F (racemic) [Compound 246] | 80 | 0 | 0 | 0 | 0 | 10 | 10 | 0 | 0 | 0 | 40 | 40 | 80 | 90 | 0 | 0 | 
O=C1NCC(c2ccc(C(F)(F)F)nc2)C1C(=O)Nc1ccccc1F (racemic) [Compound 262] | 70 | 0 | 0 | 0 | 0 | 0 | 0 | 0 | 20 | 10 | 75 | 60 | 80 | 90 | 0 | 0 | 
O=C1NCC(c2ccc(C(F)(F)F)cc2)C1C(=O)Nc1ccccc1Cl (centres unmarked) [Compound 233] |  | 15 | 45 | 45 | 0 | 30 | 40 | 10 | 40 | 40 | 85 | 90 |  | 90 | 25 | 0 | Plant response rating, Blackgrass ([5]; 125 g ai/ha, 0 to 100 scale, 0 is no effect, 100 is complete control): 60; Blackgrass plant response rating (0 to 100 scale, 0 is no effect, 100 is complete control) ([5]; 500 g ai/ha): 60; Plant response rating, Foxtail, Giant [1, 16]: 90; Foxtail, Giant plant response rating (0 to 100 scale, 0 is no effect, 100 is complete control) ([1]; Postemergence, 500 g ai/ha): 90; Plant response rating, Ragweed [6, 16]: 40; Plant response rating, Ragweed [6, 13]: 30; Ragweed plant response rating (0 to 100 scale, 0 is no effect, 100 is complete control) ([6]; Postemergence, 500 g ai/ha): 50; Plant response rating, Ragweed [6, 15]: 50; Plant response rating, Kochia [7, 16]: 50; Plant response rating, Kochia [7, 13]: 60; Kochia plant response rating (0 to 100 scale, 0 is no effect, 100 is complete control) ([7]; Postemergence, 500 g ai/ha): 80; Plant response rating, Kochia [7, 15]: 80
O=C1NCC(c2cccc(C(F)(F)F)c2)C1C(=O)Nc1cccc(F)c1F (centres unmarked) [Compound 241] | 90 | 0 | 5 | 40 | 20 | 30 | 55 | 0 | 25 | 30 | 70 | 80 | 90 | 90 | 0 | 20 | 
O=C(Nc1ccccc1F)C1C(=S)NCC1c1cccc(C(F)(F)F)c1 (centres unmarked) [Compound 274] |  | 0 | 20 | 20 | 0 | 5 | 30 |  | 0 | 0 | 0 |  |  |  | 20 | 0 | Plant response rating, Blackgrass ([5]; 1000 g ai/ha, 0 to 100 scale (0 no effect, 100 complete control)): 50; Plant response rating, Foxtail, Giant [1, 17]: 90; Plant response rating, Foxtail, Giant [1, 18]: 90; Plant response rating, Ragweed [6, 19]: 0; Plant response rating, Ragweed [6, 17]: 30; Plant response rating, Ragweed [6, 18]: 20; Plant response rating, Kochia [7, 17]: 40; Plant response rating, Kochia [7, 18]: 40
O=C1NCC(c2cccc(Br)c2)C1C(=O)Nc1ccccc1F (centres unmarked) [Compound 307] | 80 |  |  | 0 |  |  | 10 |  | 0 |  | 35 |  | 80 |  | 0 | 0 | Plant response rating, Ragweed ([4]; scale 0 to 100): 0; Plant response rating, Blackgrass ([5]; 125 g ai/ha, visual rating on 0 to 100 scale (0 no effect, 100 complete control), approx. 10 days): 30; Plant response rating, Blackgrass ([5]; 500 g ai/ha, 0 to 100 scale (0 no effect, 100 complete control)): 70; Plant response rating, Foxtail, Giant [1, 19]: 70; Foxtail, Giant plant response rating [1, 20]: 90; Plant response rating, Velvetleaf ([2]; 125 g ai/ha, scale 0 to 100): 0; Plant response rating, Ryegrass, Italian ([3]; 125 g ai/ha, scale 0 to 100): 5; Plant response rating, Ragweed [6, 19]: 0; Plant response rating, Ragweed [6, 8]: 0; Plant response rating, Ragweed [6, 14]: 0; Ragweed plant response rating [6, 20]: 0; Plant response rating, Kochia [7, 19]: 0; Plant response rating, Kochia [7, 8]: 0; Plant response rating, Kochia [7, 14]: 0; Kochia plant response rating [7, 20]: 0
